Target: T1, GST-Bfl-1 (Homo sapiens, UniProt Q16548)
T1 construct: lacking their C-terminal transmembrane domains (about the last 20 amino acids) (“ΔTM”); made in house; host or cells: XL-1 Blue E. coli, pGEX 4T-1
T1 sequence (Q16548 1-155 limits assumed): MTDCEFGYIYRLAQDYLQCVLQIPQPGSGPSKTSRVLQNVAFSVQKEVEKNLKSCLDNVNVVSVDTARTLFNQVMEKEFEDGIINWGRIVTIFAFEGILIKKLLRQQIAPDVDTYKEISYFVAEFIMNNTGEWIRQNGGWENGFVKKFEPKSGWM
Experiment: Bfl-1/FITC-Bid BH3 competitive fluorescence polarization assay
Format: binding
Details: primary HTS hits, MLSCN library (PubChem SIDs), Table 5B
Procedure: A FPA was performed to determine the binding affinity of FITC-Bid BH3 peptide to Bcl-2 proteins. […] IC50 determinations were performed using GraphPad Prism software (GraphPad, Inc., San Diego, Calif.). FPA competition assays were performed using the same procedure described above, except that 100 nM of GST-Bfl-1 protein in a volume of 45 μl was incubated with 5 μl (50 μM) test compounds in DMSO per well for 30 min prior to addition of 50 μl (5 nM) FITC-Bid BH3 peptide. The final DMSO concentration was 5% when the reactions brought to fall volume of 100 μl. Fluorescence polarization was measured after 10 min. Compounds that reduced the fluorescence polarization by 50% were considered hits.

SMILES	% Activity	FRatio
Cc1cccc(OCC(=O)Nc2ccc(N3CCCC3)cc2)c1C [Compound 7975075]	76.1%	0.72
Brc1ccc2ncnc(Nc3ccc(N4CCOCC4)cc3)c2c1 [Compound 7975247]	86.8%	0.87
CCSc1nnc(NC(=O)c2cnccn2)s1 [Compound 7977261]	58.3%	1.19
O=c1oc2c3c4c(cc2s1)CCCN4CCC3 [Compound 7978324]	66.9%	1.02
O=C(Nc1ccccc1C(=O)O)c1ccccc1 [Compound 14723278]	85.4%	0.87
c1cc2c3c(cccc3c1)NC1(CCCCC1)N2 [Compound 14724643]	52.7%	0.82
c1nnnn1C12CC3CC(CC(C3)C1)C2 [Compound 14725293]	60.7%	0.98
Nc1ccc(N2CCN(C(=O)c3cccs3)CC2)cc1 [Compound 14726238]	57.8%	0.87
Cc1ccc(C)n1-c1sccc1C(=O)O [Compound 14729511]	80%	0.77
COc1ccc2c(c1)c(=O)oc1cc(OCC(=O)NC3CCCCC3)ccc12 [Compound 14730237]	78.9%	0.91
O=C(Nc1ccc(N2CCCC2)cc1)C(c1ccccc1)c1ccccc1 [Compound 14730995]	64.1%	0.9
Cc1ccc(C(=O)ONc2ccc(/N=N/C(=O)c3ccccc3O)cc2)cc1 [Compound 14732345]	108.7%	0.83
O=C(Cc1cnn(-c2ccccc2)c1)c1ccc(O)c(O)c1O [Compound 14732615]	57.8%	0.74
CCc1ccc(NC(=O)c2noc3c2CCC3)cc1 [Compound 14733222]	68.1%	0.73
COc1ccc(NC(=O)c2noc3c2CCC3)cc1 [Compound 14733727]	102.1%	0.93
CCc1ccccc1NC(=O)c1cc2ncc(Br)cn2n1 [Compound 14733824]	74.2%	0.79
CC1CC(C)CN(C(=O)c2ccc3c(c2NCCO)C(=O)c2ccccc2C3=O)C1 (stereo not drawn) [Compound 14734023]	83.7%	0.97
Cc1ccc(NC(=O)Nc2cccs2)c(Cl)c1 [Compound 14734202]	66.3%	1.39
CCC1=[N+](C)CCn2c(C)ccc21 [Compound 14734567]	57.1%	1
CN(C)S(=O)(=O)N(CC(=O)N(Cc1ccccc1)Cc1ccccc1)c1ccccc1 [Compound 14736293]	90.4%	0.73
CN(C)c1ccc(NC(=O)CN2C(=O)CN=C(c3ccccc3)c3cc(Cl)ccc32)cc1 [Compound 14738707]	66.4%	0.84
COc1ccc(C(=O)Nc2ccc(N3CCCC3)cc2)cc1 [Compound 14739290]	78.8%	0.85
O=C(Cc1ccccc1)Nc1ccc(N2CCCC2)cc1 [Compound 14739360]	59.1%	0.93
CCC1=NNc2cccc3c(OC)ccc1c23 [Compound 14740154]	83.6%	1
CC(=O)Nc1ccc(S(=O)(=O)/N=C2/C(=O)c3ccccc3C(O)=C2N2CCN(Cc3ccccc3)CC2)cc1 [Compound 14742166]	50.6%	0.73
Cc1ccc2c(c1)c(=O)c1c3n2CCN(C(=O)CCl)C3CC1 (stereo not drawn) [Compound 14742276]	72.4%	0.88

The next lines start with the values.

% Activity	FRatio	SMILES
52%	0.9	COc1ccc(NC(=O)c2cnn3c(C(F)(F)F)cc(-c4ccco4)nc23)cc1OC [Compound 7974080]
56%	0.92	Cc1ccc(O)c(/N=C/C2=C(O)c3ccccc3C2=O)c1 [Compound 7974116]
90.6%	0.76	Cc1ccc(OCC(=O)Nc2ccc(N3CCCC3)cc2)cc1C [Compound 7974807]
52.2%	0.73	O=C1CCCC2=C1C(c1ccco1)Nc1ccc3ccccc3c12 (stereo not drawn) [Compound 7975176]
50.8%	0.88	Cc1ccccc1C1C(=O)c2sc3nc4c(c(=O)n3c2C1=O)CCC4 (stereo not drawn) [Compound 7977096]
111.5%	0.39	CC1=C(N2C(=O)c3ccc4c5c(ccc(c35)C2=O)CC4)C(C)N(c2ccccc2)N1C (stereo not drawn) [Compound 7978392]
55%	0.84	Cc1ccc2nc(O)c(C3C(C#N)=C(N)Oc4c3ccc3cccnc43)cc2c1 (stereo not drawn) [Compound 14720783]
64.5%	0.95	Cc1cccc2cc(C(c3nnnn3C(C)(C)C)N(Cc3ccco3)CC3CCCO3)c(O)nc12 (stereo not drawn) [Compound 14720806]
56%	1.29	Cc1cc2cc(CN(Cc3ccco3)S(=O)(=O)c3c(C)ccc4nsnc34)c(O)nc2cc1C [Compound 14720830]
52.9%	0.98	Cn1c(=O)n(C)c2cc(S(=O)(=O)Nc3ccccc3O)ccc21 [Compound 14723355]
55.5%	0.81	Cc1ccc(-c2nnc(S)n2/N=C/C=C/c2ccccc2[N+](=O)[O-])cc1 [Compound 14729394]
59.7%	0.75	COc1ccc2c(c1)c(=O)oc1cc(OCC(=O)N3CCc4ccccc4C3)ccc12 [Compound 14730322]
69.5%	0.83	Cc1ccc(-n2nc3ccc(NC(=O)c4ccc5c(c4)OCO5)cc3n2)cc1 [Compound 14732083]
60.8%	0.93	Cc1ccc(S(=O)(=O)Cc2ccc(C(=O)N3CCc4ccccc4C3)o2)cc1 [Compound 14733336]
51.8%	1	CCS(=O)(=O)NCc1ccc2c(c1)cc(C)n2C [Compound 14733498]
68.2%	0.76	CCOc1cc(/C=C2\C(=O)N(c3nc(-c4ccc(Br)cc4)cs3)N=C2c2ccccc2)ccc1O [Compound 14733887]
59.3%	0.71	Cc1cc(OCC(=O)Nc2ccc(N3CCCC3)cc2)cc(C)c1Cl [Compound 14734365]
89.5%	1.15	CCOC(=O)c1ccc(NC2=CC(=O)C(=O)c3ccccc32)cc1 [Compound 14737410]
66.5%	0.86	Cc1ccc(S(=O)(=O)Cc2ccc(C(=O)O)o2)cc1 [Compound 14737647]
59.5%	0.97	CC(=O)c1ccc(NC(=O)c2ccc3nc(-c4ccco4)c(-c4ccco4)nc3c2)cc1 [Compound 14740115]
56.3%	1.09	Cc1ccccc1NC(=O)CSc1nnc(-c2ccco2)c(-c2ccco2)n1 [Compound 14742395]
78.5%	0.61	Cc1c(CN(C)C)c2c(n1Cc1ccccc1)C(=O)c1ccc(Br)cc1-2 [Compound 14742663]

Reference: patent US20090118135A1, “METHODS AND COMPOUNDS FOR REGULATING APOPTOSIS” (The Burnham Institute, priority 2007, published 2009)
